Results from patent US20070105810A1, “THERAPEUTICS” (priority 2003, published 2007).
Entries after “also recorded” stand apart in the source; their conditions may differ.

Experiments:
[1] = tested on: encephalitogenic (MBP-specific GFP) T cells and inflammatory cells in CNS and spleen; assay: Cytofluorometric cell counts in organs of EAE animals; type: in vivo, rat
Protocol: Animals (6 per group, body weight approx. 150 g) were injected i.p. twice per day with either PBS (vehicle control), nicotinic acid (50 μmol/100 g body weight), or BZ 52 (50 μmol/100 g body weight). […] Data are corrected for organ mass and presented as mean±SD from one representative experiment.
Cytofluorometric cell counts of MBP-specific GFP T cells in spleen A and CNS B of BZ194 (500 μmol) and DMSO-treated animals at d 3 after T cell transfer.
Cytofluorometric counts of T cells (CD4/8, abTCR), monocytes/macrophages (CD11b), dendritic cells (CD11c), B cells (OX33/CD45RA) and LFA-1+ (CD11a) and MHC class II+ (OX-6) cells in EAE lesions 4 days after T cell transfer after BZ194 (5 d, 500 μmol, blue bars) or vehicle (DMSO, magenta bars).
Single cell suspensions from organs were prepared as described previously (Flügel et al. 2001, Immunity). TGFP cells were sorted immediately after cell preparation in PBS containing 2% glucose at 4° C. using FACS Vantage (Becton Dickinson) or MoFlo sorter (Cytomation Bioinstruments, Freiburg, Germany). Cytofluorometric analysis was performed with FACS-Calibur operated by Cell Quest software (Becton Dickinson). The following monoclonal antibodies were used for surface membrane analysis: W3/25 (anti-CD4), OX33 (CD45RA, B cells, both from Serotec, Düsseldorf, Germany), R73 (abTCR), OX-6 (rat MHC class II), OX-40 antigen (CD134), OX-39 (CD25, IL-2Ra chain), CD8a, CD8b, CD11a (LFA-1a), CD11b (integrin aM chain), CD11b/c (OX42), CD11c (integrin aX chain) (all Becton Dickinson, Heidelberg, Germany). Allophycocyanin-labeled anti-mouse antibody (Invitrogen, Karlsruhe, Germany) was used as secondary antibody.

[2] = tested on: NAADP/Ca2+ signalling in Jurkat T cells; assay: Ca2+ signalling evoked by microinjection of NAADP in Jurkat T cells; type: cell-based, human; settings: for NAADP-mediated Ca2+ signalling: T-lymphocytes, summary statement
Protocol: NAADP (final concentration 100 nM), IP3 (final concentration 4 μM), and BZ52 (final concentration 1 mM) were injected into single Jurkat T cells while [Ca^2+]i was analyzed by Ca^2+ imaging. Data are presented as mean±SEM (n=4 to 13).
Effect of NAADP-microinjection and co-injection with BZ52 (1 mM) on [Ca^2+]i in human Jurkat T-Lymphocytes. Upper panel: microinjection of 100 nM NAADP (arrow), middle panel: microinjection of the vehicle buffer (arrow), lower panel: co-microinjection of 100 nM NAADP plus 1 mM BZ52 (arrow).
The Jurkat T cells were loaded with fura-2/AM and kept in the dark at room temperature until use. Glass coverslips were coated first with BSA (5 mg/ml) and subsequently with poly-L-lysine (0.1 mg/ml). Small chamber slides consisting of a rubber O-ring were sealed on thin (0.1 mm) glass coverslips by silicon grease. Then, 60 μl buffer A containing 140 mM NaCl, 5 mM KCl, 1 mM MgSO4, 1 mM CaCl2, 1 mM NaH2PO4, 5.5 mM glucose, and 20 mM HEPES (pH 7.4), and 40 μl cell suspension (2*10^6 cells/ml) suspended in the same buffer were added into the small chamber and the coverslip was mounted on the stage of a fluorescence microscope (Leica DM IRE2).
Ratiometric Ca^2+ imaging was performed as described earlier. In brief, we used an Improvision imaging system (Heidelberg, Germany) built around the Leica microscope at 100-fold magnification. Illumination at 340 and 380 nm was carried out using a monochromator system (Polychromator IV, TILL Photonics, Graefelfing, Germany). Images were taken with a gray-scale CCD camera (type C4742-95-12ER; Hamamatsu, Enfield, United Kingdom; operated in 8-bit mode). The optimal relation of spatial to temporal resolution for the ratiometric measurements was obtained using a spatial resolution of 512×640 pixel, resulting in a pixel length of 129 nm/pixel (at 100-fold magnification). […]
Ratiometric Ca^2+ imaging—The cells were loaded with fura-2/AM and kept in the dark at room temperature until use. […] The coverslip with cells slightly attached to the BSA/poly-L-lysine coating was mounted on the stage of a fluorescence microscope (Leica DM IRE2). […]

[3] = Tolerability of intraperitoneal injection in Lewis rats; type: in vivo
Description: Limited solubility of BZ194 excluded intravenous application due to embolic complications.

Solubility = type: physicochemical; settings: excluded intravenous application

Row | Structure (SMILES) | number of encephalitogenic T cells ([1]; day 4 post transfer, 50 μmol/100 g i.p. twice per day) | decrease of number of CNS-infiltrating encephalitogenic T cells ([1]; day 4 post transfer, 50 μmol/100 g i.p. twice per day, one animal per group) | NAADP-mediated Ca2+ signalling [2] | effect of NAADP on Ca2+ signal (peak and plateau) ([2]; co-injection of BZ52 1 mM with NAADP 100 nM) | adverse effect ([3]; higher amounts of BZ194 i.p.) | tolerability (inspection, weight development, immune cell count) ([3]; i.p., solubilized in DMSO, 180 mg/kg, 5 days) | recruitment of T cells, B cells, macrophages and dendritic cells into the CNS ([1]; 4 days after T cell transfer, BZ194 5 d, 500 μmol) | infiltration of MBP-specific T cells into the CNS ([1]; spinal cord, three days after T cell transfer, BZ194 500 μmol) | distribution of TMBP-GFP cells in spleen ([1]; three days after T cell transfer, BZ194 500 μmol) | solubility (Solubility)
1 | CCCCN(CCCC)C(=O)C[n+]1cccc(C(=O)O)c1 [BZ52, 3-Carboxy-1-dibutylcarbamoylmethyl-pyridinium] | reduced significantly | about 50% | efficiently inhibited | almost completely antagonized | – | – | – | – | – | –
2 | CCCCCCCCNC(=O)C[n+]1cccc(C(=O)O)c1.[Br-] [BZ194, 3-Carboxy-1-Octylcarbamoylmethyl-Pyridinium] | – | – | efficiently inhibited | – | occasionally induced peritonitis | well tolerated | clearly diminished | reduced; also recorded: seemed to interfere | accumulated in the spleen | Limited
